Values quoted from earlier work in PubChem BioAssay AID1259409 (Chemical Carcinogenesis Research Information System (CCRIS), 2018).
Where “and” joins values, the source holds several entries; their conditions need not be identical. Identical values can stand only once.

Tested on: rodent chemically induced tumor inhibition, incidence and multiplicity
Experiment: CCRIS tumor inhibitor studies

Compound: Cc1cnc(NC(=O)C2=C(O)c3ccccc3S(=O)(=O)N2C)s1
- tumour outcome (control, treated, inhibition, significance) (Carcinogen: N-NITROSOBIS(2-OXOPROPYL)AMINE [60599-38-4], Dose [Inhibitor]: 5 MG/KG EACH WEEKDAY OVER A PERIOD OF 16 WKS STARTING AT 4 WKS (STUDY DURATION: 20 WKS), Route [Inhibitor]: ORAL (GAVAGE?), Species: HAMSTER, Strain/Sex: SYRIAN GOLDEN/FEMALE, Target Tissue: Type of Lesion: GALL BLADDER: CARCINOMA IN SITU, Dose [Carcinogen]: 10 MG/KG BW AT WKS 4, 6, 8, 10, 12, 14, 16, 18 (8 DOSES) (STUDY DURATION: 20 WKS)): 4/11 (36%), 0/11 (0%), 100%, not significant

Compound: CC(C)=CCC/C(C)=C/COc1c2ccoc2cc2oc(=O)ccc12
- tumour outcome (control, treated, inhibition, significance) (Carcinogen: 7,12-DIMETHYLBENZ[A]ANTHRACENE, 57-97-6, Dose [Inhibitor]: 0, 400 NMOL ONCE APPLIED 5 MIN PRIOR TO CARCINOGEN DOSE (STUDY DURATION: 25 WK), Route [Inhibitor]: DERMAL, Species: MOUSE, Strain/Sex: SENCAR, Target Tissue: Type of Lesion: SKIN: PAPILLOMA, Dose [Carcinogen]: 10 NMOL ONCE, Promoter: 12-O-TETRADECANOYLPHORBOL-13-ACETATE, 16561-29-8): 96%, 100%, -4%, not significant
- tumour outcome (control, treated, inhibition, significance) (Carcinogen: 7-12-DIMETHYLBENZ[A]ANTHRACENE, 57-97-6, Dose [Inhibitor]: 0, 800 NMOL ONCE APPLIED 5 MIN PRIOR TO CARCINOGEN DOSE (STUDY DURATION: 25 WK), Route [Inhibitor]: DERMAL, Species: MOUSE, Strain/Sex: SENCAR, Target Tissue: Type of Lesion: SKIN: PAPILLOMA, Dose [Carcinogen]: 10 NMOL ONCE, Promoter: 12-O-TETRADECANOYLPHORBOL-13-ACETATE, 16561-29-8): 96%, 100%, -4%, not significant and 93%, 96%, -3%, not significant
- tumour outcome (control, treated, inhibition, significance) (Carcinogen: BENZO[A]PYRENE, 50-32-8, Dose [Inhibitor]: 0, 20 NMOL ONCE APPLIED 5 MIN PRIOR TO CARCINOGEN DOSE (STUDY DURATION: 25 WK), Route [Inhibitor]: DERMAL, Species: MOUSE, Strain/Sex: SENCAR, Target Tissue: Type of Lesion: SKIN: PAPILLOMA, Dose [Carcinogen]: 200 NMOL ONCE, Promoter: 12-O-TETRADECANOYLPHORBOL-13-ACETATE, 16561-29-8): 91%, 100%, -10%, not significant
- tumour outcome (control, treated, inhibition, significance) (Carcinogen: BENZO[A]PYRENE, 50-32-8, Dose [Inhibitor]: 0, 100 NMOL ONCE APPLIED 5 MIN PRIOR TO CARCINOGEN DOSE (STUDY DURATION: 25 WK), Route [Inhibitor]: DERMAL, Species: MOUSE, Strain/Sex: SENCAR, Target Tissue: Type of Lesion: SKIN: PAPILLOMA, Dose [Carcinogen]: 200 NMOL ONCE, Promoter: 12-O-TETRADECANOYLPHORBOL-13-ACETATE, 16561-29-8): 91%, 87%, 4%, not significant
- tumour outcome (control, treated, inhibition, significance) (Carcinogen: BENZO[A]PYRENE, 50-32-8, Dose [Inhibitor]: 0, 400 NMOL ONCE APPLIED 5 MIN PRIOR TO CARCINOGEN DOSE (STUDY DURATION: 25 WK), Route [Inhibitor]: DERMAL, Species: MOUSE, Strain/Sex: SENCAR, Target Tissue: Type of Lesion: SKIN: PAPILLOMA, Dose [Carcinogen]: 200 NMOL ONCE, Promoter: 12-O-TETRADECANOYLPHORBOL-13-ACETATE, 16561-29-8): 91%, 92%, -1%, not significant
- tumour outcome (control, treated, inhibition, significance) (Carcinogen: BENZO[A]PYRENE, 50-32-8, Dose [Inhibitor]: 0, 800 NMOL ONCE APPLIED 5 MIN PRIOR TO CARCINOGEN DOSE (STUDY DURATION: 25 WK), Route [Inhibitor]: DERMAL, Species: MOUSE, Strain/Sex: SENCAR, Target Tissue: Type of Lesion: SKIN: PAPILLOMA, Dose [Carcinogen]: 200 NMOL ONCE, Promoter: 12-O-TETRADECANOYLPHORBOL-13-ACETATE, 16561-29-8): 91%, 82%, 10%, not significant

Compound: CC1=C[C@H]2[C@@]3(O)[C@H](C)C[C@]4(OC(=O)Cc5ccccc5)C([C@@H]3C=C(CO)C[C@]2(O)C1=O)C4(C)C (some centres undefined)
- tumour outcome (control, treated, inhibition, significance) (Carcinogen: 7,12-DIMETHYLBENZ[A]ANTHRACENE, 57-97-6, Dose [Inhibitor]: 0, 2.14 NMOL 15 D POST INITIATION DOSE FOLLOWED BY 2.14 NMOL 2/WK DURING WK 3-22 APPLIED 15 MIN PRIOR TO EACH PROMOTION, Route [Inhibitor]: DERMAL, Species: MOUSE, Strain/Sex: CD-1/FEMALE, Target Tissue: Type of Lesion: SKIN: PAPILLOMA, Dose [Carcinogen]: 20 NMOL IN 200 µL ACETONE ONCE): 100%, 82%, 18%, not calculated
- tumour outcome (control, treated, inhibition, significance) (Carcinogen: 7,12-DIMETHYLBENZ[A]ANTHRACENE, 57-97-6, Dose [Inhibitor]: 0, 2.14 NMOL 15 D POST INITIATION DOSE FOLLOWED BY 2.14 PMOL 2/WK DURING WK 3-22 APPLIED 15 MIN PRIOR TO EACH PROMOTION, Route [Inhibitor]: DERMAL, Species: MOUSE, Strain/Sex: CD-1/FEMALE, Target Tissue: Type of Lesion: SKIN: PAPILLOMA, Dose [Carcinogen]: 20 NMOL IN 200 µL ACETONE ONCE): 100%, 97%, 3%, not calculated
- tumour outcome (control, treated, inhibition, significance) (Carcinogen: 7,12-DIMETHYLBENZ[A]ANTHRACENE, 57-97-6, Dose [Inhibitor]: 0, 2.14 NMOL 15 D POST INITIATION DOSE FOLLOWED BY 21.4 NMOL 2/WK DURING WK 3-22 APPLIED 15 MIN PRIOR TO EACH PROMOTION, Route [Inhibitor]: DERMAL, Species: MOUSE, Strain/Sex: CD-1/FEMALE, Target Tissue: Type of Lesion: SKIN: PAPILLOMA, Dose [Carcinogen]: 20 NMOL IN 200 µL ACETONE ONCE): 100%, 53%, 47%, not calculated
- tumour outcome (control, treated, inhibition, significance) (Carcinogen: 7,12-DIMETHYLBENZ[A]ANTHRACENE, 57-97-6, Dose [Inhibitor]: 0, 2.14 NMOL 15 D POST INITIATION DOSE FOLLOWED BY 21.4 PMOL 2/WK DURING WK 3-22 APPLIED 15 MIN PRIOR TO EACH PROMOTION, Route [Inhibitor]: DERMAL, Species: MOUSE, Strain/Sex: CD-1/FEMALE, Target Tissue: Type of Lesion: SKIN: PAPILLOMA, Dose [Carcinogen]: 20 NMOL IN 200 µL ACETONE ONCE): 100%, 100%, 0%, not significant
- tumour outcome (control, treated, inhibition, significance) (Carcinogen: 7,12-DIMETHYLBENZ[A]ANTHRACENE, 57-97-6, Dose [Inhibitor]: 0, 2.14 NMOL 15 D POST INITIATION DOSE FOLLOWED BY 214 PMOL 2/WK DURING WK 3-22 APPLIED 15 MIN PRIOR TO EACH PROMOTION D, Route [Inhibitor]: DERMAL, Species: MOUSE, Strain/Sex: CD-1/FEMALE, Target Tissue: Type of Lesion: SKIN: PAPILLOMA, Dose [Carcinogen]: 20 NMOL IN 200 µL ACETONE ONCE): 100%, 95%, 5%, not calculated
- tumour outcome (control, treated, inhibition, significance) (Carcinogen: 7,12-DIMETHYLBENZ[A]ANTHRACENE, 57-97-6, Dose [Inhibitor]: 2.14 NMOL BEGINNING 15 D POST INITIATION DOSE AND EVERY THURS. AS WELL AS 21.4 NMOL 15 MIN PRIOR TO EACH PROMOTION DOSE, Route [Inhibitor]: DERMAL, Species: MOUSE, Strain/Sex: CD-1/FEMALE, Target Tissue: Type of Lesion: SKIN: PAPILLOMA, Dose [Carcinogen]: 20 NMOL IN 200 µL ACETONE ONCE): 100%, 65%, 35%, not calculated
- tumour outcome (control, treated, inhibition, significance) (Carcinogen: 7,12-DIMETHYLBENZ[A]ANTHRACENE, 57-97-6, Dose [Inhibitor]: 2.14 NMOL BEGINNING 15 D POST INITIATION DOSE AND EVERY WED. AS WELL AS 21.4 NMOL 15 MIN PRIOR TO PROMOTION DOSE ON FRI., Route [Inhibitor]: DERMAL, Species: MOUSE, Strain/Sex: CD-1/FEMALE, Target Tissue: Type of Lesion: SKIN: PAPILLOMA, Dose [Carcinogen]: 20 NMOL IN 200 µL ACETONE ONCE): 98%, 50%, 49%, not calculated
